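Cells were grown in 96-well plates and exposed to each compound for 48 hours at five concentrations; endpoints were interpolated linearly between bracketing concentrations, or set to the highest concentration if not reached. Here, GI50 denotes the concentration required for 50% inhibition of growth.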 Active and inactive are the calls of the source. Cut-off read from the data, not from the text of the source: active = GI50 up to about 1.1 µM and inactive = higher. Where a SMILES comes first, the peptide text is derived from it. The star is where a group is joined. CH2Cl = ClC*
How the values were obtained:
Experiment in all cases: NCI-60 cell line screen, 48 h
[1] = test system: HOP-92
[2] = test system: K562
[3] = test system: UACC-257
[4] = test system: OVCAR-4
[5] = test system: SK-MEL-5
[6] = test system: SR
[7] = test system: TK-10
[8] = test system: MOLT-4
[9] = test system: SNB-75
[10] = test system: MDA-MB-435
[11] = test system: KM12
[12] = test system: SF-268
[13] = test system: SNB-19
[14] = test system: SK-MEL-2
[15] = test system: OVCAR-8
[16] = test system: PC-3
[17] = test system: SW-620
[18] = test system: Hs-578T
[19] = test system: HT-29
[20] = test system: BT-549

Measured: GI50

Cc1ccc(-c2nc3cc([N+](=O)[O-])ccc3[nH]2)cc1
inactive: [1] > 100 µM | [2] 59.3 µM | [3] 80.4 µM | [4] 81.8 µM | [5] 64.7 µM | [6] 70.8 µM | [7] > 100 µM | [8] 47.4 µM | [9] > 100 µM | [10] > 100 µM | [11] 54 µM | [12] > 100 µM | [13] > 100 µM | [14] > 100 µM | [15] 93.1 µM | [16] 38.9 µM | [17] > 100 µM | [18] > 100 µM | [19] 39.2 µM | [20] > 100 µM

CC(=O)NC(CC(C)C)C(=O)NC(Cc1ccccc1)C(=O)CCl (stereo not drawn) (Ac-Leu-Phe-CH2Cl; configuration not given here)
inactive: [1] 5.78 µM | [2] 1.63 µM | [3] 7.73 µM | [4] 18.3 µM | [5] 8.02 µM | [6] 2.55 µM | [7] 10.4 µM | [8] 1.84 µM | [9] 14.1 µM | [10] 12.3 µM | [11] 18.7 µM | [12] 17.9 µM | [13] 20 µM | [14] 10.3 µM | [15] 4.69 µM | [16] 14 µM | [17] 2.67 µM | [18] 17.3 µM | [19] 8.38 µM | [20] 14.9 µM

Reference: ChEMBL document CHEMBL1201862, “PubChem BioAssay data set” (2004)
